Target: T1, E. coli IleRS (Escherichia coli, UniProt P00956)
T1 construct: gene ileS; purified recombinant E. coli IleRS
Assay: radiolabel aminoacyl transfer assay ([…]-Ile to tRNA, TCA precipitation)
Type: biochemical
Conditions: 10 nM IleRS, 50 µM 14C-isoleucine, 2 mg/mL tRNA, 500 µM ATP, 10 mM MgCl2, pH 7.5, 37 °C, 10 min preincubation; dose-response curve not determined

T1 sequence (P00956 2-938): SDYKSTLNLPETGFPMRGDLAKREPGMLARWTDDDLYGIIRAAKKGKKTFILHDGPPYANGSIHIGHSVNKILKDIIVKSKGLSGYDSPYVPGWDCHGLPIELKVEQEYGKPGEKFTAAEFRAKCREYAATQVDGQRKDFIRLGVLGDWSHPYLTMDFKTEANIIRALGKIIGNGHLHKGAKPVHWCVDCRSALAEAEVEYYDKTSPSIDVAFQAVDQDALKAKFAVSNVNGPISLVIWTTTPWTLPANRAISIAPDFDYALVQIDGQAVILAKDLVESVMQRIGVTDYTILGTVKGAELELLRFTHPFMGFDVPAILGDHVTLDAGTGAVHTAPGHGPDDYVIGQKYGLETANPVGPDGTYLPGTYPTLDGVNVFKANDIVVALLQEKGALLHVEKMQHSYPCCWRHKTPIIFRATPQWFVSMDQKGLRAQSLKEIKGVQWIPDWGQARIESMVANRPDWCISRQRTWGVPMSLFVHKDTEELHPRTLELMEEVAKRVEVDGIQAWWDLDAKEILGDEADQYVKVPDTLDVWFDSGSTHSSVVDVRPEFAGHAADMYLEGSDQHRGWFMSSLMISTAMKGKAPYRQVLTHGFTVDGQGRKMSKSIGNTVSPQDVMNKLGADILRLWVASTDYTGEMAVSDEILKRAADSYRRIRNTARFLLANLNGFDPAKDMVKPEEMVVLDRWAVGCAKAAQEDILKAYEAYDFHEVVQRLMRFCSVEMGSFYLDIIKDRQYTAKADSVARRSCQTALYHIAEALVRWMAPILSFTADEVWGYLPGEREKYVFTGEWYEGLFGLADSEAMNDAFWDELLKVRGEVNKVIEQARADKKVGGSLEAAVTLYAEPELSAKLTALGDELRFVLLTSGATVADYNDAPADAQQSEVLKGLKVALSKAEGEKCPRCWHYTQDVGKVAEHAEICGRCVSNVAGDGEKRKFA

| Structure (SMILES) | relative activity |
| --- | --- |
| CCCCCCCCCCCCNc1ncnc2c1ncn2[C@@H]1O[C@H](COS(=O)(=O)NC(=O)[C@@H](N)[C@@H](C)CC)[C@@H](O)[C@H]1O [6c, 5′-O-(N-L-isoleucyl)-sulfamoyl-N^6-dodecyl-adenosine] | the dodecyl derivative 6c was active in submicromolar range |
| CCCCCCCCCCCCCCCCCCNc1ncnc2c1ncn2[C@@H]1O[C@H](COS(=O)(=O)NC(=O)[C@@H](N)[C@@H](C)CC)[C@@H](O)[C@H]1O [6d, 5′-O-(N-L-isoleucyl)-sulfamoyl-N^6-octadecyl-adenosine] | the octadecyl compound 6d was found to be active only in the micromolar range |

Target: T1, E. coli IleRS
Assay: as above
Type: biochemical
Conditions: not given

| Structure (SMILES) | IC50 [nM] |
| --- | --- |
| CC[C@H](C)[C@H](N)C(=O)NS(=O)(=O)OC[C@H]1O[C@@H](n2cnc3c(NC)ncnc32)[C@H](O)[C@@H]1O [6a, 5′-O-(N-L-isoleucyl)-sulfamoyl-N^6-methyl-adenosine] | 13.9 ± 1 |
| CCCCCCCCNc1ncnc2c1ncn2[C@@H]1O[C@H](COS(=O)(=O)NC(=O)[C@@H](N)[C@@H](C)CC)[C@@H](O)[C@H]1O [6b, 5′-O-(N-L-isoleucyl)-sulfamoyl-N^6-octyl-adenosine] | 42.8 ± 1 |
| CC[C@H](C)[C@H](N)C(=O)NS(=O)(=O)OC[C@H]1O[C@@H](n2cnc3c(OC)ncnc32)[C@H](O)[C@@H]1O [6f, 5′-O-(N-L-isoleucyl)-sulfamoyl-6-O-methyl-purine riboside] | 4.9 ± 1.1 |
| CC[C@H](C)[C@H](N)C(=O)NS(=O)(=O)OC[C@H]1O[C@@H](n2cnc3c(Nc4ccccc4)ncnc32)[C@H](O)[C@@H]1O [6e, 5′-O-(N-L-isoleucyl)-sulfamoyl-N^6-phenyl-adenosine] | 10.5 ± 1 |
